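The compound was tested at five concentrations on cells cultured in 96-well plates, with a 48-hour exposure period. GI50 = concentration required for 50% inhibition of growth.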 Active and inactive are the calls of the source. Rule as the data show it: active = GI50 up to about 1.1 µM and inactive = higher.
Tests used:
Assay in all cases: NCI anticancer screen, dose series, 48 h
MDA-MB-435 = tested on: MDA-MB-435
HOP-62 = tested on: HOP-62
UACC-257 = tested on: UACC-257
MCF7 = tested on: MCF7
M14 = tested on: M14
SR = tested on: SR
BT-549 = tested on: BT-549
SNB-75 = tested on: SNB-75
EKVX = tested on: EKVX
Malme-3M = tested on: Malme-3M
MDA-MB-231 = tested on: MDA-MB-231
786-0 = tested on: 786-0
OVCAR-3 = tested on: OVCAR-3
SF-295 = tested on: SF-295
KM12 = tested on: KM12
A549 = tested on: A549
CAKI-1 = tested on: CAKI-1
PC-3 = tested on: PC-3
LOX IMVI = tested on: LOX IMVI
HOP-92 = tested on: HOP-92

| Compound | GI50 (MDA-MB-435) | GI50 (HOP-62) | GI50 (UACC-257) | GI50 (MCF7) | GI50 (M14) | GI50 (SR) | GI50 (BT-549) | GI50 (SNB-75) | GI50 (EKVX) | GI50 (Malme-3M) | GI50 (MDA-MB-231) | GI50 (786-0) | GI50 (OVCAR-3) | GI50 (SF-295) | GI50 (KM12) | GI50 (A549) | GI50 (CAKI-1) | GI50 (PC-3) | GI50 (LOX IMVI) | GI50 (HOP-92) |
| --- | --- | --- | --- | --- | --- | --- | --- | --- | --- | --- | --- | --- | --- | --- | --- | --- | --- | --- | --- | --- |
| O=C(CC1(O)C(=O)Nc2c(Cl)cc(Cl)cc21)c1ccc(Br)cc1Br (centres undefined) | 12.8 µM (inactive) | 20.8 µM (inactive) | 10.7 µM (inactive) | 13.2 µM (inactive) | 5.96 µM (inactive) | 1.56 µM (inactive) | 10.5 µM (inactive) | 18.1 µM (inactive) | 19 µM (inactive) | 11.5 µM (inactive) | 14.7 µM (inactive) | 11.3 µM (inactive) | 18.7 µM (inactive) | 20 µM (inactive) | 12.9 µM (inactive) | 22.2 µM (inactive) | 4.24 µM (inactive) | 16.9 µM (inactive) | 5.19 µM (inactive) | 2.4 µM (inactive) |
| O=C1Oc2ccccc2C1C/C(=N\Nc1ccccc1)c1ccccc1O (centres undefined) | 27.2 µM (inactive) | 53.3 µM (inactive) | 28.8 µM (inactive) | 36.5 µM (inactive) | 50.8 µM (inactive) | 27.4 µM (inactive) | 28.6 µM (inactive) | 56.8 µM (inactive) | 26.5 µM (inactive) | 41.3 µM (inactive) | 28.9 µM (inactive) | 36.1 µM (inactive) | 32.8 µM (inactive) | 33.7 µM (inactive) | 7.46 µM (inactive) | 50 µM (inactive) | 25.6 µM (inactive) | 30.2 µM (inactive) | 11.5 µM (inactive) | 25.6 µM (inactive) |
| COC1=CC(=O)c2c(cc(COP(=O)(N(C)CCBr)N(C)CCBr)n2C)C1=O | 1.09 µM (active) | < 0.0322 µM (active) | 2.7 µM (inactive) | < 0.0182 µM (active) | 0.614 µM (active) | < 0.01 µM (active) | 1.38 µM (inactive) | 0.102 µM (active) | 2.03 µM (inactive) | 0.906 µM (active) | 3.91 µM (inactive) | < 0.0204 µM (active) | 2.16 µM (inactive) | < 0.0164 µM (active) | 4.04 µM (inactive) | 0.185 µM (active) | < 0.0182 µM (active) | 6.82 µM (inactive) | < 0.0238 µM (active) | 0.69 µM (active) |
| CC12CN(CC[N+](C)(C)C)CC1(C)C1CCC2O1 (centres undefined) | > 100 µM (inactive) | > 100 µM (inactive) | > 100 µM (inactive) | > 100 µM (inactive) | > 100 µM (inactive) | > 100 µM (inactive) | > 100 µM (inactive) | > 100 µM (inactive) | > 100 µM (inactive) | > 100 µM (inactive) | > 100 µM (inactive) | > 100 µM (inactive) | > 100 µM (inactive) | > 100 µM (inactive) | > 100 µM (inactive) | > 100 µM (inactive) | > 100 µM (inactive) | > 100 µM (inactive) | > 100 µM (inactive) | > 100 µM (inactive) |
| CC(=O)O[C@H]1C(=O)[C@@]2(C)[C@H]([C@H](OC(=O)c3ccccc3)[C@]3(O)C[C@H](OC(=O)[C@H](O)[C@@H](NC(=O)c4cccc(N=[N+]=[N-])c4)c4ccccc4)C(C)=C1C3(C)C)[C@]1(OC(C)=O)CO[C@@H]1C[C@@H]2O | < 0.0025 µM (active) | 0.00813 µM (active) | 0.00621 µM (active) | < 0.0025 µM (active) | 0.00908 µM (active) | < 0.0025 µM (active) | 0.0364 µM (active) | 0.0173 µM (active) | > 7.59 µM (inactive) | 0.00711 µM (active) | 0.0149 µM (active) | 0.0179 µM (active) | < 0.0025 µM (active) | 0.0247 µM (active) | 0.0038 µM (active) | 0.0108 µM (active) | 1.07 µM (active) | 0.0047 µM (active) | 0.00789 µM (active) | 0.0109 µM (active) |
| N#Cc1c(C#N)c(-c2ccco2)n(/N=C/c2ccco2)c1N | > 100 µM (inactive) | 28.1 µM (inactive) | > 100 µM (inactive) | 6.5 µM (inactive) | > 100 µM (inactive) | 26.1 µM (inactive) | 22.8 µM (inactive) | 7.29 µM (inactive) | 20.1 µM (inactive) | > 100 µM (inactive) | 11.3 µM (inactive) | 33.2 µM (inactive) | > 100 µM (inactive) | 21.9 µM (inactive) | > 100 µM (inactive) | 47.5 µM (inactive) | > 100 µM (inactive) | > 100 µM (inactive) | 83.4 µM (inactive) | 11.2 µM (inactive) |
| C=C(C)C(=O)OC1CC2=CC(CC3(C)OC3C3OC(=O)C(=C)C13)OC2=O (centres undefined) | 15.2 µM (inactive) | 22.4 µM (inactive) | 5.41 µM (inactive) | 3.81 µM (inactive) | 4.41 µM (inactive) | 2.51 µM (inactive) | 11.8 µM (inactive) | 14.7 µM (inactive) | 15 µM (inactive) | 4.23 µM (inactive) | 18.1 µM (inactive) | 7.24 µM (inactive) | 10.7 µM (inactive) | 18.6 µM (inactive) | 15.6 µM (inactive) | 18.6 µM (inactive) | 4.58 µM (inactive) | 14.7 µM (inactive) | 4.14 µM (inactive) | 2.9 µM (inactive) |
| CC(=O)C1=C(C)N(c2ccc(C)cc2)C2(O)C3=C(C(=O)c4ccccc4C3=O)C(O)=CC12Cl (centres undefined) | 3.79 µM (inactive) | 32.2 µM (inactive) | 9.38 µM (inactive) | 12.1 µM (inactive) | 40.7 µM (inactive) | 7.06 µM (inactive) | 15 µM (inactive) | 21.9 µM (inactive) | 54.1 µM (inactive) | 10.5 µM (inactive) | 31.8 µM (inactive) | 25.4 µM (inactive) | 4.76 µM (inactive) | 5.81 µM (inactive) | 5.37 µM (inactive) | 17.5 µM (inactive) | 10.4 µM (inactive) | 8.85 µM (inactive) | 12.1 µM (inactive) | 43.8 µM (inactive) |
| NNC(=O)c1ccccc1Nc1nc(-c2cccs2)nc2ccc(Br)cc12 | 77.4 µM (inactive) | > 100 µM (inactive) | > 100 µM (inactive) | 49.5 µM (inactive) | 86.7 µM (inactive) | > 100 µM (inactive) | 84.1 µM (inactive) | 45.4 µM (inactive) | > 100 µM (inactive) | > 100 µM (inactive) | > 100 µM (inactive) | 49.5 µM (inactive) | 25.9 µM (inactive) | 51.8 µM (inactive) | 67.5 µM (inactive) | 85.1 µM (inactive) | 74.3 µM (inactive) | 44.4 µM (inactive) | 44.9 µM (inactive) | > 100 µM (inactive) |
| Cc1cc(S(=O)(=O)/N=C(\NN)Nc2ccc(Cl)cc2)c(S)cc1Cl | 8.02 µM (inactive) | 10.8 µM (inactive) | 19.3 µM (inactive) | 14.8 µM (inactive) | 8.65 µM (inactive) | 3.76 µM (inactive) | 10.8 µM (inactive) | 6.49 µM (inactive) | 5.16 µM (inactive) | 16.9 µM (inactive) | 20.4 µM (inactive) | 6.34 µM (inactive) | 12.4 µM (inactive) | – | 2.85 µM (inactive) | 11 µM (inactive) | 19.9 µM (inactive) | 21.2 µM (inactive) | 13.9 µM (inactive) | 34.4 µM (inactive) |

— ChEMBL document CHEMBL1201862, “PubChem BioAssay data set” (2004)
